Laboratory results reported in US20080242542A1, “INDANILINE DYE, THERMAL TRANSFER RECORDING INK SHEET, THERMAL TRANSFER RECORDING METHOD, COLOR TONER, INKJET INK, AND COLOR FILTER” (FUJIFILM Corporation, priority 2007, published 2008).

assay: Light fastness of recorded image under Xe light; assay type: physicochemical; details: Xe light (17000 lux) for 7 days; retention of reflection density 1.0
Method: Next, the recorded samples were exposed to an Xe light (17000 lux) for 7 days, and rested for the light stability (light fastness) of the recorded images. After the exposure, the status A reflection density of the part of each sample having an original status A reflection density of 1.0 before the exposure was measured, and the retention (by percentage) to the reflection density of 1.0 after exposure to that before exposure indicates the image stability. With the retention percentage, the samples were ranked in three, A (from 80% to less than 100%), B (from 60% to less than 80%) , C (less than 60%).

| SMILES | Light Fastness |
| --- | --- |
| CCN(CC)c1ccc(N=C2C=C(NC(C)=O)C(=O)C(Cl)=C2C)cc1 [Comparative Dye 1] | A (A (from 80% to less than 100%)) |
| CCN(CC)c1ccc(N=C2C=C(NC(C)=O)C(=O)C=C2C)c(C)c1 [Comparative Dye 3] | B (B (from 60% to less than 80%)) |
| CCN(CC)c1ccc(N=C2C=C(NC(C)=O)C(=O)C(Cl)=C2C)c(C)c1 [Comparative Dye 4] | A (A (from 80% to less than 100%)) |
| CCN(CC)c1ccc(N=C2C=C(NC(=O)c3ccccc3)C(=O)C(Cl)=C2C)c(C)c1 [Comparative Dye 5] | A (A (from 80% to less than 100%)) |
| CCC(=O)NC1=CC(=Nc2ccc(N(CC)CC)cc2)C(C)=C(Cl)C1=O [Compound (1)] | A (A (from 80% to less than 100%)) |

assay: Absorption spectrometry in ethyl acetate solution; assay type: physicochemical; details: 1×10^−6 mol/L, optical path length 10 mm
Method: The thus-obtained compounds (1) to (4) were analyzed for absorption spectrometry in an ethyl acetate solution (concentration: 1×10^−6 mol/L, optical path length; 10 mm). The data of ^1H NMR spectrometry (in heavy chloroform) and MS spectrometry of the obtained compounds (1) to (4) are shown in Table 1 below.

| SMILES | Maximum Absorption Wavelength |
| --- | --- |
| CCC(=O)NC1=CC(=Nc2ccc(N(CC)CC)cc2)C(C)=C(Cl)C1=O [Compound (1)] | 626 nm |
